The test system of experiment [1] is Salmonella enterica. As to the kind of experiment: Inhibition of Salmonella enterica HPPK at 50 uM incubated for 20 mins in presence of ATP by Kinase Glo luminescence assay. Background: In Kinase-Glo more light means more ATP remaining.
The test system of experiment [2] is Escherichia coli. The experiment is described as follows: Inhibition of Escherichia coli HPPK at 50 uM incubated for 20 mins in presence of ATP by Kinase Glo luminescence assay.
Experiment [3] is described as follows: Inhibition of Salmonella enterica HPPK incubated for 20 mins in presence of ATP by Kinase Glo luminescence assay.
A short description of experiment [4]: Binding affinity to Salmonella enterica HPPK.
The nature of experiment [5]: Inhibition of Salmonella enterica HPPK.
A short description of experiment [6]: Inhibition of Escherichia coli HPPK.
Experiment [7] in a line: Binding affinity to Escherichia coli HPPK.

These results are taken from ChEMBL document CHEMBL5136971, “Virtual screening and in vitro validation identifies the first reported inhibitors of Salmonella enterica HPPK” (RSC Med Chem, 2021).

Calls of active or inactive are those of the source. The calls are words filed in the database; no cut-off is given here.

The term IC50 denotes the midpoint of a concentration-inhibition curve. As usually defined, the Kd is the free concentration of one partner at which half of the binding sites on the other are occupied at equilibrium, for simple one-to-one binding. A lower Kd goes with a tighter complex.

With `Cc1ccc2c(C)c(C(=O)NCc3ccc(S(N)(=O)=O)cc3)oc2c1`, in experiment [1], the “inhibition activity call (active/inactive)” value is “Active”. In addition, the inhibition result in experiment [2] is “Active”.

Take `O=C(NCc1n[nH]c(=O)c2ccccc12)c1cccc(Cl)c1`: in experiment [3], the IC50 is 10400 nM. The “inhibition activity call (active/inactive)” value in experiment [1] is “Active”.

`Cc1cccc(NC(=O)CN2C(=O)N/C(=C\c3cccn3-c3ccccc3)C2=O)c1`: in experiment [1], the “inhibition activity call (active/inactive)” value is “Active”.

In experiment [4], `Nc1nc2[nH]c(SCc3ccccc3F)nc2c(=O)[nH]1` registered a Kd of 450 nM. This compound gave a concentration for half-maximal inhibition (IC50) in experiment [5] of 25000 nM.

For `CCOC(=O)N1CCN(S(=O)(=O)c2ccc3c4c(cccc24)C(=O)N3)CC1`, in experiment [1], the “inhibition activity call (active/inactive)” value is “Active”.

On to `CC1(C)Nc2nc(N)[nH]c(=O)c2N=C1C(=O)NCCN1CCC(SC[C@H]2O[C@@H](n3cnc4c(N)ncnc43)[C@H](O)[C@@H]2O)CC1`, for which half-maximal inhibition in experiment [6] (IC50) was put at 3200 nM. Binding in experiment [7] was characterised by a dissociation constant (Kd) of 2500 nM.

With `O=C1CC(C(=O)Nc2cccc3ccccc23)C2(CCCCC2)O1` (stereo not given), the “inhibition activity call (active/inactive)” value in experiment [1] was “Active”. The inhibition entry in experiment [2] was “Active”.

Turning to `O=C(c1ccccc1F)N1CCN(c2ccc([N+](=O)[O-])c3ncccc23)CC1`, the “inhibition activity call (active/inactive)” value in experiment [1] was “Active”.

`CC1(C)Nc2nc(N)[nH]c(=O)c2N=C1C(=O)NCCN1CC[C@@H](SC[C@H]2O[C@@H](n3cnc4c(N)ncnc43)[C@H](O)[C@@H]2O)C[C@@H]1C(=O)O` displayed an IC50 in experiment [6] of 380 nM. The compound also yielded a Kd in experiment [7] of 190 nM.
